Values after ≈ are worked out from the molar mass of the structure shown. Active and inactive are the calls of the source. Unless noted, the rule behind the calls is not given here.
Assays:
[1] = tested on: Porphyromonas gingivalis; assay: Antibiofilm activity against Porphyromonas gingivalis ATCC 33277 assessed as inhibition of biofilm formation up to 96 ug/mL after 24 hrs by crystal violet staining based assay; assay type: functional, organism-based
[2] = tested on: Candida albicans; assay: Antiadherence activity in FITC-labelled Candida albicans ATCC 28366 assessed as reduction of bacterial adhesion to hydroxylapatite at 96 ug/mL after 1 hr by fluorescence assay relative to control; assay type: functional; design: scale not given: the % may be the effect or the level left
[3] = tested on: Staphylococcus aureus; assay: Growth inhibition of Staphylococcus aureus ATCC 6538 incubated for 24 hrs under aerobic condition by microdilution method; assay type: organism-based; conditions: in vitro
[4] = tested on: Streptococcus mutans; assay: Antiadherence activity in FITC-labelled Streptococcus mutans ATCC 25175 assessed as reduction of bacterial adhesion to hydroxylapatite at 96 ug/mL after 1 hr by fluorescence assay; assay type: functional; design: scale not given: the % may be the effect or the level left
[5] = tested on: Streptococcus mutans; assay: Inhibition of planktonic growth of Streptococcus mutans ATCC 25175 up to 96 ug/mL after 24 hrs relative to control; assay type: organism-based
[6] = tested on: Candida albicans; assay: Antiadherence activity against FITC-labelled Candida albicans ATCC 28366 assessed as reduction in bacterial adhesion to hydroxylapatite at 3 ug/mL after 1 hr by fluorescence assay; assay type: functional, organism-based
[7] = tested on: Escherichia coli; assay: Growth inhibition of Escherichia coli ATCC 15939 incubated for 24 hrs under aerobic condition by microdilution method; assay type: organism-based
[8] = tested on: Fusobacterium nucleatum; assay: Antibiofilm activity against Fusobacterium nucleatum ATCC 25586 assessed as inhibition of biofilm formation up to 96 ug/mL after 24 hrs by crystal violet staining based assay; assay type: functional, organism-based
[9] = tested on: Pseudomonas aeruginosa; assay: Growth inhibition of Pseudomonas aeruginosa ATCC 10145 incubated for 24 hrs under aerobic condition by microdilution method; assay type: organism-based
[10] = tested on: Streptococcus mutans; assay: Antibiofilm activity against Streptococcus mutans ATCC 25175 assessed as inhibition of biofilm formation up to 96 ug/mL after 24 hrs by crystal violet staining-based assay; assay type: functional, organism-based
[11] = tested on: Limosilactobacillus fermentum; assay: Antibiofilm activity against Lactobacillus fermentum LacB1 assessed as inhibition of biofilm formation up to 96 ug/mL after 24 hrs by crystal violet staining based assay; assay type: functional, organism-based
[12] = tested on: Listeria monocytogenes; assay: Growth inhibition of Listeria monocytogenes WSLC 1001 incubated for 24 hrs under aerobic condition by microdilution method; assay type: organism-based; conditions: in vitro
[13] = Solubility of the compound in water; assay type: physicochemical; conditions: buffer
[14] = tested on: Streptococcus mutans; assay: Antiadherence activity in FITC-labelled Streptococcus mutans ATCC 25175 assessed as reduction in bacterial adhesion to hydroxylapatite at 3 ug/mL after 1 hr fluorescence assay; assay type: functional, organism-based
[15] = tested on: Streptococcus mutans; assay: Growth inhibition of Streptococcus mutans ATCC 25175 incubated for 24 hrs under aerobic condition by microdilution method; assay type: organism-based
[16] = tested on: Streptococcus mutans; assay: Bactericidal activity against Streptococcus mutans ATCC 25175; assay type: organism-based
[17] = tested on: Candida albicans; assay: Antibiofilm activity against Candida albicans ATCC 28366 assessed as reduction of biofilm formation up to 96 ug/mL after 24 hrs by crystal violet staining based assay; assay type: functional, organism-based
[18] = tested on: Actinomyces naeslundii; assay: Antibiofilm activity against Actinomyces naeslundii ATCC 49340 assessed as reduction in biofilm formation up to 96 ug/mL after 24 hrs by crystal violet staining-based assay; assay type: functional, organism-based
[19] = tested on: Candida albicans; assay: Antiadherence activity against FITC-labelled Candida albicans ATCC 28366 assessed as reduction in bacterial adhesion to hydroxylapatite up to 96 ug/mL after 1 hr by fluorescence assay relative to control; assay type: functional; design: scale not given: the % may be the effect or the level left
[20] = tested on: Streptococcus mutans; assay: Antiadherence activity in FITC-labelled Streptococcus mutans ATCC 25175 assessed as reduction in bacterial adhesion to hydroxylapatite up to 96 ug/mL after 1 hr fluorescence assay; assay type: functional, organism-based
[21] = tested on: Candida albicans; assay: Growth inhibition of Candida albicans ATCC 28366 up to 96 ug/ml measured after 24 hrs by microdilution method; assay type: organism-based; conditions: in vitro
[22] = biological target: Mu-type opioid receptor (Rattus norvegicus) (UniProt P33535); assay: Displacement of [3H]DAMGO from mu-opioid receptor in Long-Evans rat brain after 1 hr by liquid scintillation counting method; assay type: tissue-based
Chain of Mu-type opioid receptor (Rattus norvegicus) (P33535 whole entry): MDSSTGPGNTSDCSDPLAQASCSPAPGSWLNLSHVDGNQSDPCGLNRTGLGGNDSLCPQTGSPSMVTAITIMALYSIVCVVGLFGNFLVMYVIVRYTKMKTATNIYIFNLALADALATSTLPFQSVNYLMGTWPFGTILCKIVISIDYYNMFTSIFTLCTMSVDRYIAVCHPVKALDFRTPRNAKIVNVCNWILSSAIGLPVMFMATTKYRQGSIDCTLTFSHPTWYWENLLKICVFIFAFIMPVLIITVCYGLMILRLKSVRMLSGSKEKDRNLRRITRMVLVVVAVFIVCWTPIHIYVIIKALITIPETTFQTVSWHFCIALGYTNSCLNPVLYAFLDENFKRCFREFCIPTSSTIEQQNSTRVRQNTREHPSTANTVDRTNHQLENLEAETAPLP

[23] = tested on: Fibroblast; assay: Cytotoxicity against human fibroblasts; assay type: cell-based
[24] = tested on: Streptococcus mutans; assay: Inhibition of planktonic growth of Streptococcus mutans ATCC 25175 at MIC> 192 ug/mL after 24 hrs relative to control; assay type: organism-based
[25] = tested on: Staphylococcus aureus; assay: Antibacterial activity against Staphylococcus aureus MTCC 902 measured after 24 hrs by broth dilution method; assay type: functional; conditions: MTCC 902, 24 h
[26] = tested on: Escherichia coli; assay: Antibacterial activity against Escherichia coli MTCC 2622 measured after 24 hrs by broth dilution method; assay type: functional; conditions: MTCC 2622, 24 h
[27] = tested on: Pseudomonas aeruginosa; assay: Antibacterial activity against Pseudomonas aeruginosa MTCC 2642 measured after 24 hrs by broth dilution method; assay type: functional; conditions: MTCC 2642, 24 h
[28] = tested on: Streptococcus mutans; assay: Inhibition of planktonic growth of Streptococcus mutans ATCC 25175 at 96 ug/mL measured after 24 hrs relative to control; assay type: organism-based
[29] = tested on: A549; assay: Growth inhibition of human A549 cells; assay type: functional, cell-based

With `O=C1N[C@H](Cc2ccc(OCc3ccccc3)cc2)C(=O)N[C@H]1Cc1ccc(OCc2ccccc2)cc1` the inhibition [1] was “inactive”, the Activity [2] was 53% and the MIC [3] was > 192 µg/mL. For the same molecule, the Activity [4] was 82%, the “growth inhibition (GI)” value [5] was “Non-Toxic” and the Activity [6] was “inactive”. The MIC [7] was > 192 µg/mL, the inhibition [8] was “inactive” and the MIC [9] was > 192 µg/mL. The inhibition [10] was “inactive”, the inhibition [11] was “inactive” and the MIC [12] was > 192 µg/mL. For the same molecule, the solubility [13] was “Insoluble” and the Activity [14] was “inactive”.

For `O=C1N[C@@H](Cc2ccc(O)cc2)C(=O)N[C@H]1Cc1ccc(O)cc1`, the inhibition [1] was “inactive”, the MIC [15] was 96 µg/mL (≈ 294 µM) and the MBC [16] was > 192 µg/mL. The Activity [17] was “Active”, the MIC [3] was > 192 µg/mL and the Activity [18] was “inactive”. For the same molecule, the “growth inhibition (GI)” value [5] was “Toxic”, the MIC [7] was > 192 µg/mL and the inhibition [8] was “inactive”. The MIC [9] was > 192 µg/mL, the Activity [19] was 20% and the inhibition [10] was “inactive”. The inhibition [11] was “inactive”, the Activity [20] was “inactive” and the MIC [12] was > 192 µg/mL. The “growth inhibition (GI)” value [21] was “Non-Toxic” and the Activity [22] was “Active”.

With `O=C1N[C@H](Cc2ccc(O)cc2)C(=O)N[C@@H]1Cc1ccccc1` the inhibition [1] was “inactive”, the Activity [23] was “Non-Toxic” and the Activity [17] was “Active”. For the same molecule, the MIC [3] was > 192 µg/mL, the Activity [18] was “inactive” and the “growth inhibition (GI)” value [5] was “Toxic”. The MIC [7] was > 192 µg/mL, the inhibition [8] was “inactive” and the “inhibition (INH)” value [24] was 20%. For the same molecule, the MIC [25] was 16 µg/mL (≈ 51.6 µM), the MIC [9] was > 192 µg/mL and the MIC [26] was 64 µg/mL (≈ 206 µM). The Activity [19] was “inactive”, the inhibition [10] was “inactive” and the inhibition [11] was “inactive”. For the same molecule, the MIC [12] was > 192 µg/mL, the “growth inhibition (GI)” value [21] was “Non-Toxic” and the MIC [27] was 32 µg/mL (≈ 103 µM).

For `O=C1N[C@@H](Cc2ccc(O)cc2)C(=O)N[C@H]1Cc1ccccc1`, the inhibition [1] was “inactive”, the Activity [23] was “Non-Toxic” and the Activity [17] was “Active”. The MIC [3] was > 192 µg/mL, the Activity [18] was “inactive” and the “growth inhibition (GI)” value [5] was “Toxic”. For the same molecule, the MIC [7] was > 192 µg/mL, the inhibition [8] was “inactive” and the MIC [9] was > 192 µg/mL. For the same molecule, the Activity [19] was “inactive”, the inhibition [10] was “inactive” and the “inhibition (INH)” value [28] was 20%. The inhibition [11] was “inactive”, the MIC [12] was > 192 µg/mL and the “growth inhibition (GI)” value [21] was “Non-Toxic”. For the same molecule, the Activity [22] was “Active” and the IC50 [29] was 10 µM.

Source: ChEMBL document CHEMBL4340502, “Anti-biofilm and anti-adherence properties of novel cyclic dipeptides against oral pathogens” (Bioorg Med Chem, 2019)
